Experiments:
Test in all cases: biochemical
Design in all cases: KINOMEscan competition binding assay, kinase captured on immobilized ligand, per cent of DMSO control
Settings in all cases: read-out: % Ctrl
[1] = molecular target: WNK1 (Homo sapiens, UniProt Q9H4A3)
Method: (§1) Competition binding assays were performed by DiscoverX (Freemont, CA, USA). […] S-Score^35 = (number of non-mutant kinases with %Ctrl < 35)/(number of non-mutant kinases tested). […] Kds are calculated […] by measuring the amount of kinase captured on the solid support as a function of the test compound concentration (n = 2, mean ± range).

[2] = molecular target: TSSK1B (Homo sapiens, UniProt Q9BXA7)
Method: as §1

[3] = molecular target: T1, YANK2 (Homo sapiens, UniProt Q9NY57)
T1 construct: gene STK32B
Method: as §1

[4] = molecular target: T2, YANK1 (Homo sapiens, UniProt Q8WU08)
T2 construct: gene STK32A
Method: as §1

[5] = molecular target: T3, TRKC (Homo sapiens, UniProt Q16288)
T3 construct: gene NTRK3
Method: as §1

[6] = molecular target: T4, YANK3 (Homo sapiens, UniProt Q86UX6)
T4 construct: gene STK32C
Method: as §1

[7] = molecular target: TYRO3 (Homo sapiens, UniProt Q06418)
Method: as §1

[8] = molecular target: ZAP70 (Homo sapiens, UniProt P43403)
Method: as §1

[9] = molecular target: TRPM6 (Homo sapiens, UniProt Q9BX84)
Method: as §1

[10] = molecular target: T5, YES (Homo sapiens, UniProt P07947)
T5 construct: gene YES1
Method: as §1

[11] = molecular target: WEE2 (Homo sapiens, UniProt P0C1S8)
Method: as §1

[12] = molecular target: ULK2 (Homo sapiens, UniProt Q8IYT8)
Method: as §1

[13] = molecular target: WEE1 (Homo sapiens, UniProt P30291)
Method: as §1

[14] = molecular target: ULK3 (Homo sapiens, UniProt Q6PHR2)
Method: as §1

[15] = molecular target: TXK (Homo sapiens, UniProt P42681)
Method: as §1

[16] = molecular target: T6, YSK4 (Homo sapiens, UniProt Q56UN5)
T6 construct: gene MAP3K19
Method: as §1

[17] = molecular target: ULK1 (Homo sapiens, UniProt O75385)
Method: as §1

[18] = molecular target: TLK1 (Homo sapiens, UniProt Q9UKI8)
Method: as §1

[19] = molecular target: T7, ZAK (Homo sapiens, UniProt Q9NYL2)
T7 construct: gene MAP3K20
Method: as §1

[20] = molecular target: T8, TYK2(JH1domain-catalytic) (Homo sapiens, UniProt P29597)
T8 construct: JH1domain-catalytic
Method: as §1

[21] = molecular target: TNK1 (Homo sapiens, UniProt Q13470)
Method: as §1

[22] = molecular target: T9, TRKB (Homo sapiens, UniProt Q16620)
T9 construct: gene NTRK2
Method: as §1

[23] = molecular target: TNNI3K (Homo sapiens, UniProt Q59H18)
Method: as §1

[24] = molecular target: T10, YSK1 (Homo sapiens, UniProt O00506)
T10 construct: gene STK25
Method: as §1

[25] = molecular target: TLK2 (Homo sapiens, UniProt Q86UE8)
Method: as §1

[26] = molecular target: TTK (Homo sapiens, UniProt P33981)
Method: as §1

[27] = molecular target: T11, TYK2(JH2domain-pseudokinase) (Homo sapiens, UniProt P29597)
T11 construct: JH2domain-pseudokinase
Method: as §1

[28] = molecular target: TNK2 (Homo sapiens, UniProt Q07912)
Method: as §1

[29] = molecular target: VRK2 (Homo sapiens, UniProt Q86Y07)
Method: as §1

[30] = molecular target: TNIK (Homo sapiens, UniProt Q9UKE5)
Method: as §1

[31] = molecular target: T12, VEGFR2 (Homo sapiens, UniProt P35968)
T12 construct: gene KDR
Method: as §1

[32] = molecular target: T13, TIE2 (Homo sapiens, UniProt Q02763)
T13 construct: gene TEK
Method: as §1

[33] = molecular target: WNK3 (Homo sapiens, UniProt Q9BYP7)
Method: as §1

[34] = molecular target: T14, TRKA (Homo sapiens, UniProt P04629)
T14 construct: gene NTRK1
Method: as §1

Chain of WNK3 (Q9BYP7 whole entry): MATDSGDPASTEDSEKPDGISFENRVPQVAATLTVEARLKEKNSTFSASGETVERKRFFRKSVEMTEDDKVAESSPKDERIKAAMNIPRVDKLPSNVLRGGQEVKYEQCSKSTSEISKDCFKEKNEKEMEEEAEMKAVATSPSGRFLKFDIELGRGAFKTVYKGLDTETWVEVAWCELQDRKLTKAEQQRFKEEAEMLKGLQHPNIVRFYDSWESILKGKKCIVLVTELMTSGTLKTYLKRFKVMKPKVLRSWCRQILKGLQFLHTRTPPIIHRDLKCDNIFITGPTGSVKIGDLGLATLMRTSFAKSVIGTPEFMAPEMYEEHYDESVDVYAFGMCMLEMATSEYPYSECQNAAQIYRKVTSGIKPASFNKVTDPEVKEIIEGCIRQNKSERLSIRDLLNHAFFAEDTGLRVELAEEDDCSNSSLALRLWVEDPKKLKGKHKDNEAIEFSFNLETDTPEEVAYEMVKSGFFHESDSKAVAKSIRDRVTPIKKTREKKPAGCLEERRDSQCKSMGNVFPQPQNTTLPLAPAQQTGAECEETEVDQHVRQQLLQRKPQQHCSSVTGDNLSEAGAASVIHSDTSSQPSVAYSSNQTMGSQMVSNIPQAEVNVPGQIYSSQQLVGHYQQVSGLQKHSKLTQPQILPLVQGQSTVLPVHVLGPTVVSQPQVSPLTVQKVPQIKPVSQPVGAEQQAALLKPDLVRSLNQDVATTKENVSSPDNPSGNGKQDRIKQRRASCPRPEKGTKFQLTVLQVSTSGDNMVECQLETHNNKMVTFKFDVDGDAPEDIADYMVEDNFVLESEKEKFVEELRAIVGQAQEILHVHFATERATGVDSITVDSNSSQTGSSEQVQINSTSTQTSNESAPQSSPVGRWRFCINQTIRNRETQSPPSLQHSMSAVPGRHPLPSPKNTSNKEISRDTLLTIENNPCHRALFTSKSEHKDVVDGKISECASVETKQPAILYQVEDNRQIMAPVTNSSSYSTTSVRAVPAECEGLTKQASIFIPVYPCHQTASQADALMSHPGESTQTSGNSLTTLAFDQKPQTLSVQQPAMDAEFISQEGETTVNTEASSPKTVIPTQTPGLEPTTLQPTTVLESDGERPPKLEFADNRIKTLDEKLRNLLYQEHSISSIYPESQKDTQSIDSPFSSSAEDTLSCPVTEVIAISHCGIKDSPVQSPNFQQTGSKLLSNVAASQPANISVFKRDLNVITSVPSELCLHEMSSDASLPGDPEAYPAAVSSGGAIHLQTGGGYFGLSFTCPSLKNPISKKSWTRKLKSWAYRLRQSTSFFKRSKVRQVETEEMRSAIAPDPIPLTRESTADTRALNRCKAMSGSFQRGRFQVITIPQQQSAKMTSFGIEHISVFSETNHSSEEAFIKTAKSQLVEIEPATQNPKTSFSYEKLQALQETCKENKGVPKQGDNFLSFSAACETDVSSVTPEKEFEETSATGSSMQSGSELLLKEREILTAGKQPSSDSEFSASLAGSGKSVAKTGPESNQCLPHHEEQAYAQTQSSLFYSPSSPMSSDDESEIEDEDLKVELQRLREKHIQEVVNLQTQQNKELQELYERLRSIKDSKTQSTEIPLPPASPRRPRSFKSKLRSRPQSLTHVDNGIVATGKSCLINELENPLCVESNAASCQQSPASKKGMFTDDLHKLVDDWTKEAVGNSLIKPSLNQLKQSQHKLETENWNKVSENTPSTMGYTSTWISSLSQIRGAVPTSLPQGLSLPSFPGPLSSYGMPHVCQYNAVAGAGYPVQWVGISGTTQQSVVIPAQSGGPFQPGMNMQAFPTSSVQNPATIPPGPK
T2 sequence (Q8WU08 whole entry): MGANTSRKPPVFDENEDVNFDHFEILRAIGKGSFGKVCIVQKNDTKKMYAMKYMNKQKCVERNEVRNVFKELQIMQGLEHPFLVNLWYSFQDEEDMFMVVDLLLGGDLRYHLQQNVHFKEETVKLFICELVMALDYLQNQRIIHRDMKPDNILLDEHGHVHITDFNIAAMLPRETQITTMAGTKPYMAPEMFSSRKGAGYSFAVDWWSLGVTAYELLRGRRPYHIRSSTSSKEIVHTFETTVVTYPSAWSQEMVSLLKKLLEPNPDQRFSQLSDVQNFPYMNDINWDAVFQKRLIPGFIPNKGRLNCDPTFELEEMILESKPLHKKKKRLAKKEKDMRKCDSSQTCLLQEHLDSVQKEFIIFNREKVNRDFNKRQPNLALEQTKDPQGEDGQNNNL
Chain of TXK (P42681 whole entry): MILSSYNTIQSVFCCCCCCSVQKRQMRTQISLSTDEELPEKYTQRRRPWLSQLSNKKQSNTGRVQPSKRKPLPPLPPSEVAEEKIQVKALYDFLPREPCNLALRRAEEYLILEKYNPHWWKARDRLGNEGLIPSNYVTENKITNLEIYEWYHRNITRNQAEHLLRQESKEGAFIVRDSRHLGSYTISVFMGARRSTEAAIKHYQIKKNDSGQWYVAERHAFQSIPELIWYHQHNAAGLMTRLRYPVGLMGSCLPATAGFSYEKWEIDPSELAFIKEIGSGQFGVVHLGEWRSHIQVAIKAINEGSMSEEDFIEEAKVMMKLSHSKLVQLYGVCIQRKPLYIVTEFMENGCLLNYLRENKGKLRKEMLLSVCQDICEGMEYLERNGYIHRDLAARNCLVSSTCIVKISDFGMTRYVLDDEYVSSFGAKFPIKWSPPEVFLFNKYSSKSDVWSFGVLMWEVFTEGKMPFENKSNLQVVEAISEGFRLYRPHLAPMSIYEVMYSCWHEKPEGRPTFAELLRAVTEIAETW
Chain of TLK2 (Q86UE8 whole entry): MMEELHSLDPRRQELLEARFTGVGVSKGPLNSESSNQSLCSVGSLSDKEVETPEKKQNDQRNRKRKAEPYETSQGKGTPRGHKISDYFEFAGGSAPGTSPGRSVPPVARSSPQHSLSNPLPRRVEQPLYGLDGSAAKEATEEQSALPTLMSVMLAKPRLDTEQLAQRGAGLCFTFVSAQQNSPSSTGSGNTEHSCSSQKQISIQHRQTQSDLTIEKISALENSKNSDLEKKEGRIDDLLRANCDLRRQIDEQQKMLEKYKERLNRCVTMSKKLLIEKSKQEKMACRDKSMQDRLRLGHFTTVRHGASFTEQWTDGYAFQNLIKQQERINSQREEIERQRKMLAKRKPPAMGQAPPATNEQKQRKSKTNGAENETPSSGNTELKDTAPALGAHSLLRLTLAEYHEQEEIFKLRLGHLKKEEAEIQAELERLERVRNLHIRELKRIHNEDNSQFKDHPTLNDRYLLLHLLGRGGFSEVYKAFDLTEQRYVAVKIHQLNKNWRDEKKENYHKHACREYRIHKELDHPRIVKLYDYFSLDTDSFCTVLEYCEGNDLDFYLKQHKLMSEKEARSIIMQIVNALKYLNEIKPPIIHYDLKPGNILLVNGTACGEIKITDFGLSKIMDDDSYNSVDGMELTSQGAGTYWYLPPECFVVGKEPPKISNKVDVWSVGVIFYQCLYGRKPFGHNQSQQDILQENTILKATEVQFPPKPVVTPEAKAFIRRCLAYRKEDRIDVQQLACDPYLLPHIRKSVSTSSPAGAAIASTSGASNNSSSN
Chain of TNNI3K (Q59H18 whole entry): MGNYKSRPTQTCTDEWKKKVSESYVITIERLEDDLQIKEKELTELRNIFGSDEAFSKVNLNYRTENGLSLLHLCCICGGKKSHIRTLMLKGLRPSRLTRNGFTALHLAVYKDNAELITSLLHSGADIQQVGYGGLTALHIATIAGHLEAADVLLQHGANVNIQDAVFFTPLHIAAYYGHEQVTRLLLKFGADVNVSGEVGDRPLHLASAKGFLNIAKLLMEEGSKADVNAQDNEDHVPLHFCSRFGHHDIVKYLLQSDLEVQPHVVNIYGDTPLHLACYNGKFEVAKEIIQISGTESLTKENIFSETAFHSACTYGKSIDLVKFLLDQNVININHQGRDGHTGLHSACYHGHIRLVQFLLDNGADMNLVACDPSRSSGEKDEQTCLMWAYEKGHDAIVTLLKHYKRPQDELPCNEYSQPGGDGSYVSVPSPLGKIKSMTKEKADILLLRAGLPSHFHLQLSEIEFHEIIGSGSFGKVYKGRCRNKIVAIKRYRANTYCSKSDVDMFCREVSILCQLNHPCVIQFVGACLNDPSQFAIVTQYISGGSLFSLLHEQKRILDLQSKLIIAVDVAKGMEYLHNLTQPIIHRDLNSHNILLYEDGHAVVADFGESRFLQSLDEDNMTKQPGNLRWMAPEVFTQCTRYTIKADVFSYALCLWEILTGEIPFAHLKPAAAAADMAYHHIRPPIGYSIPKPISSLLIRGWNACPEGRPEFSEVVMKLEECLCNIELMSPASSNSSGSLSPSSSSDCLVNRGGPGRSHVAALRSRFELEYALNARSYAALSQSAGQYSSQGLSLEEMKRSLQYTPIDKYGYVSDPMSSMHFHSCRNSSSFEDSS
T10 sequence (O00506 whole entry): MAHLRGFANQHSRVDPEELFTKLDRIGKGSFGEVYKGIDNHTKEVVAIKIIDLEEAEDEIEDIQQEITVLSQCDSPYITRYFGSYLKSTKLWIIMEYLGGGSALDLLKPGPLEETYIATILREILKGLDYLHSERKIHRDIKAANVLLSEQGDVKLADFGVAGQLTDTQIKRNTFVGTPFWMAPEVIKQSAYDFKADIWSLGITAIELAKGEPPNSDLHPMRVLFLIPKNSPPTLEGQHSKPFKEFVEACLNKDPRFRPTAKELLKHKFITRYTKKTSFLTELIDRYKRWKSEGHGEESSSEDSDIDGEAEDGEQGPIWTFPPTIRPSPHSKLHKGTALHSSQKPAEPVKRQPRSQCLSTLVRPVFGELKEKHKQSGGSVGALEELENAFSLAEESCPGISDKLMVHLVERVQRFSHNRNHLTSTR

percent of control binding at 10 µM [1]: 61%
percent of control binding at 10 µM [2]: 83%
percent of control binding at 10 µM [3]: 84%
percent of control binding at 10 µM [4]: 60%
percent of control binding at 10 µM [5]: 100%
percent of control binding at 10 µM [6]: 72%
percent of control binding at 10 µM [7]: 93%
percent of control binding at 10 µM [8]: 100%
percent of control binding at 10 µM [9]: 60%
percent of control binding at 10 µM [10]: 87%
percent of control binding at 10 µM [11]: 88%
percent of control binding at 10 µM [12]: 98%
percent of control binding at 10 µM [13]: 82%
percent of control binding at 10 µM [14]: 71%
percent of control binding at 10 µM [15]: 100%
percent of control binding at 10 µM [16]: 81%
percent of control binding at 10 µM [17]: 79%
percent of control binding at 10 µM [18]: 100%
percent of control binding at 10 µM [19]: 100%
percent of control binding at 10 µM [20]: 97%
percent of control binding at 10 µM [21]: 88%
percent of control binding at 10 µM [22]: 100%
percent of control binding at 10 µM [23]: 98%
percent of control binding at 10 µM [24]: 88%
percent of control binding at 10 µM [25]: 83%
percent of control binding at 10 µM [26]: 99%
percent of control binding at 10 µM [27]: 86%
percent of control binding at 10 µM [28]: 92%
percent of control binding at 10 µM [29]: 58%
percent of control binding at 10 µM [30]: 85%
percent of control binding at 10 µM [31]: 82%
percent of control binding at 10 µM [32]: 100%
percent of control binding at 10 µM [33]: 50%
percent of control binding at 10 µM [34]: 93%
SMILES: COc1cc(O)c2c(c1)OC(O)(c1ccc(OCc3ccccc3)cc1)CC2=O (stereo not shown) [6E11, 2-(4-(benzyloxy)phenyl)-2,5-dihydroxy-7-methoxychroman-4-one]
